Measured values published in patent US9371519B2, “Complex type sugar chain hydrolase” (National Institute of Advanced Industrial Science and …, priority 2011, dated 2016).

Key:
[1] = target: T1, Ogataea minuta endo-β-N-acetylglucosaminidase Endo-Om, wild type (recombinant, purified), SEQ ID NO: 1 (Ogataea minuta, UniProt R4WHQ8); experiment: Km and Vmax for NGA2-Asn-Fmoc hydrolysis, purified Endo-Om (HPLC); type: biochemical
T1 sequence (R4WHQ8 1-772): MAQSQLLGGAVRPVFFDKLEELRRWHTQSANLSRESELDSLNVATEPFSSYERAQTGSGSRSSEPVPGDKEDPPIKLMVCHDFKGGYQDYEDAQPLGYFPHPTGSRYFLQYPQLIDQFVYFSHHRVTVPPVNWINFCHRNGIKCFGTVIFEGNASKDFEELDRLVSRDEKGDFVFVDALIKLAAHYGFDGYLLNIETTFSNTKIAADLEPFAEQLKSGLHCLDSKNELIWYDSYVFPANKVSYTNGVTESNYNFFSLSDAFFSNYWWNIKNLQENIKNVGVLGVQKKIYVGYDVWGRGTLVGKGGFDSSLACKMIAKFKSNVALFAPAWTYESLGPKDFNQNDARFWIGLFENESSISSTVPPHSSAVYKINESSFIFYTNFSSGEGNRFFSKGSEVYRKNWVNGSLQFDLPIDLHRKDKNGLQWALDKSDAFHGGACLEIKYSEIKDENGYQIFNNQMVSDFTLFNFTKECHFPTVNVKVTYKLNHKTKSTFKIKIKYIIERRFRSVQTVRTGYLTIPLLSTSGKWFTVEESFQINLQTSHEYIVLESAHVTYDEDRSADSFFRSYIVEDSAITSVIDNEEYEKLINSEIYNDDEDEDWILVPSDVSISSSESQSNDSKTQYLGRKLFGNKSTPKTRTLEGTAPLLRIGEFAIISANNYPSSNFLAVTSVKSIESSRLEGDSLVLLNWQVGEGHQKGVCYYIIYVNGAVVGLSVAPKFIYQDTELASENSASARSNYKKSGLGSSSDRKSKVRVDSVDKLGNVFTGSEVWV
Protocol: (§1) The enzyme activity was measured as follows. A reaction solution (total volume: 10 μl) containing 100 mM of a sodium acetate buffer (pH 5.3) at the final concentration, 0.5 M NaCl, 10 μM of a Fmoc-labeled biantennary complex type sugar chain (NGA2-Asn-Fmoc), and an Endo-Om crude enzyme solution was incubated at 50° C. for 1 hour, and heated at 95° C. for 5 minutes, thereby stopping the enzyme reaction. The reaction solution was subjected to HPLC, and the enzymatic activity was calculated from the peak area ratio between the NGA2-Asn-Fmoc as the substrate and its hydrolysate. The column was Asahipak NH2P-50 4E (4.6.250 mm, Shodex), and the solvents were acetonitrile (solvent A) and 200 mM of TEAA (pH 7.0, GLEN RESEARCH: solvent B). Isocratic elution was carried out at a flow rate of 1.0 ml/min, and the solvent B: 43%, and detection was carried out using a fluorescence detector (excitation wavelength 265 nm, and fluorescence wavelength 315 nm). The activity hydrolyzing 1 vol of NGA2-Asn-Fmoc in 1 minute under the above-described reaction conditions was defined as 1 Unit of the enzymatic activity of Endo-Om.
(§2) The properties of Endo-Om were studied using a purified enzyme solution. According to the method described in Example 4, the Endo-Om crude enzyme solution prepared from 100 ml culture was substituted with an equilibration buffer (20 mM sodium phosphate buffer (pH 7.4), 0.5 M NaCl, 0.5 mM PMSF, 50 mM imidazole) by dialysis. […] According to the method described in Example 4, the activity of the Endo-Om purified enzyme solution when the substrate concentration was 1 mM was measured, and the specific activity was calculated. In addition, activity measurement was carried out using NGA2-Asn-Fmoc at different concentrations as the substrates, and Km and Vmax were calculated. For comparison, the specific activity, Km, and Vmax of the commercially available Endo-M were calculated by the same method. […]

[2] = target: T2, Mucor hiemalis endo-β-N-acetylglucosaminidase Endo-M (commercially available) (Mucor hiemalis, UniProt Q9C1S6); experiment: Km and Vmax for NGA2-Asn-Fmoc hydrolysis, commercially available Endo-M (HPLC); type: biochemical; details: sodium acetate pH 6.0, 0.5 M NaCl, 50° C.
T2 sequence (Q9C1S6 1-744): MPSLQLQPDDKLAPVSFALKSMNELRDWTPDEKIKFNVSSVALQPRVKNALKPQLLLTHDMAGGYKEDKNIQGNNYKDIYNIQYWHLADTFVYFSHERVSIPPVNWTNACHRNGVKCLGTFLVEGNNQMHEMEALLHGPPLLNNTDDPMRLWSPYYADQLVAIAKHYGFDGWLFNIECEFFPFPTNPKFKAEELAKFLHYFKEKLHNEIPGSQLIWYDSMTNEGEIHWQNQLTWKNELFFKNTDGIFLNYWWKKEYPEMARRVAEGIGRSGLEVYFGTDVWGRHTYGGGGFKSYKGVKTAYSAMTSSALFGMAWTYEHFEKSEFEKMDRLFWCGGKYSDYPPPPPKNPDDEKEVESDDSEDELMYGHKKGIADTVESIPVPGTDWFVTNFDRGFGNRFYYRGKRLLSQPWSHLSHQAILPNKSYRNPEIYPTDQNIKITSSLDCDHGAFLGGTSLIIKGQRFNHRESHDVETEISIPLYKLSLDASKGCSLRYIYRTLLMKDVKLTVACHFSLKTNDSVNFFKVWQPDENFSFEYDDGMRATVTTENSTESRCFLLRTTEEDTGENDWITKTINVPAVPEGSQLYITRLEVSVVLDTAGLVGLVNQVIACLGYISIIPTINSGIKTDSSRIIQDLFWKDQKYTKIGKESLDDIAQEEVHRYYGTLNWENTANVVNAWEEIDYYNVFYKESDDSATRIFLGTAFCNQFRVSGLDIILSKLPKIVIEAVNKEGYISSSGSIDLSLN
Protocol: as §1, with “The column was Asahipak NH2P-50 4E (4.6.250 mm, Shodex), and the solvents were acetonitrile (solvent A) and 200 mM of TEAA (pH 7.0, GLEN RESEARCH: solvent B).” left out, “The activity hydrolyzing 1 vol of NGA2-Asn-Fmoc in 1 minute under the above-described reaction conditions was defined as 1 Unit of the enzymatic activity of Endo-Om.” left out
as §2, with “solution.” for “solution. According to the method described in Example 4, the Endo-Om crude enzyme solution prepared from 100 ml culture was substituted with an equilibration buffer (20 mM sodium phosphate buffer (pH 7.4), 0.5 M NaCl, 0.5 mM PMSF, 50 mM imidazole) by dialysis.”

With `CC(=O)N[C@@H]1[C@@H](O)[C@H](O[C@@H]2O[C@H](CO)[C@@H](O[C@@H]3O[C@H](CO[C@H]4O[C@H](CO)[C@@H](O)[C@H](O)[C@@H]4O[C@@H]4O[C@H](CO)[C@@H](O)[C@H](O)[C@H]4NC(C)=O)[C@@H](O)[C@H](O[C@H]4O[C@H](CO)[C@@H](O)[C@H](O)[C@@H]4O[C@@H]4O[C@H](CO)[C@@H](O)[C@H](O)[C@H]4NC(C)=O)[C@@H]3O)[C@H](O)[C@H]2NC(C)=O)[C@@H](CO)O[C@H]1NC(=O)C[C@H](NC(=O)OCC1c2ccccc2-c2ccccc21)C(=O)O` [NGA2-Asn-Fmoc] the Km ([1]; Endo-Om, sodium acetate pH 5.3, 0.5 M NaCl, 50° C., NGA2-Asn-Fmoc at different concentrations) was 5.54 mM, the Vmax ([1]; Endo-Om, sodium acetate pH 5.3, 0.5 M NaCl, 50° C., unit as printed in b33 and b95) was 3.88 µmol/min/mg and the “Vmax of Endo-Om relative to Vmax of Endo-M” value ([1]; ratio Endo-Om / Endo-M) was 55 times. For the same molecule, the Vmax [2] was 0.070 µmol/min/mg.
